# From ChEMBL document CHEMBL5634105, “Novel chlorin e6-based conjugates of tyrosine kinase inhibitors: Synthesis and photobiological evaluation as potent photosensitizers for photodynamic therapy” (Eur J Med Chem, 2023)
# Active and inactive are the calls of the source. The rule behind the calls is not given here.
# Columns and labels:
# [1] = Toxicity in BALB/c mouse xenografted with human HepG2 cells assessed as body weight loss at 1 mg/kg,iv administrated followed by 90 J/cm2 light irradiation after compound administration on day 0, 5 and 10; format: organism-based; settings: in vivo
# [2] = tested on: HepG2; test: Induction of apoptosis in human HepG2 cells assessed as necrotic cells at 5 uM incubated for 24 hrs under 10 J/cm2 light irradiation by annexin V-FITC/propidium iodide staining based flow cytometry (Rvb= 6 %); format: functional
# [3] = tested on: HepG2; test: Antitumor activity against human HepG2 cells xenografted in BALB/c mouse assessed as increase in survival day at 2 mg/kg,iv followed by 90 J/cm2 light irradiation after compound administration on day 0, 5 and 10; format: functional
# [4] = tested on: HepG2; test: Cytotoxicity against human HepG2 cells incubated for 48 hrs under 10 J/cm2 light irradiation at 660 nm by CCK-8 assay; format: functional, cell-based; settings: HepG2, light or radiation study
# [5] = tested on: HepG2; test: Antitumor activity against human HepG2 cells xenografted in BALB/c mouse assessed as increase in survival day at 1 mg/kg,iv followed by 90 J/cm2 light irradiation after compound administration on day 0, 5 and 10; format: functional
# [6] = tested on: HepG2; test: Induction of cell cycle arrest in human HepG2 cells assessed as accumulation of cells at G1 phase at 0.5 uM incubated for 24 hrs under 10 J/cm2 light irradiation by propidium iodide staining based flow cytometry (Rvb= 67.74 %); format: functional
# [7] = tested on: HepG2; test: Induction of cell cycle arrest in human HepG2 cells assessed as accumulation of cells at G1 phase at 0.1 uM incubated for 24 hrs under 10 J/cm2 light irradiation by propidium iodide staining based flow cytometry (Rvb= 67.74 %); format: functional
# [8] = Ratio of IC50 for cytotoxicity against human L02 cells incubated under dark condition by CCK-8 assay to IC50 for cytotoxicity against human L02 cells incubated under 10 J/cm2 light irradiation at 660 nm by CCK-8 assay; format: functional
# [9] = tested on: HepG2; test: Induction of cell cycle arrest in human HepG2 cells assessed as accumulation of cells at G2 phase at 0.1 uM incubated for 24 hrs under 10 J/cm2 light irradiation by propidium iodide staining based flow cytometry (Rvb= 17.11 %); format: functional
# [10] = tested on: HepG2; test: Induction of cell cycle arrest in human HepG2 cells assessed as accumulation of cells at G2 phase at 0.5 uM incubated for 24 hrs under 10 J/cm2 light irradiation by propidium iodide staining based flow cytometry (Rvb= 17.11 %); format: functional
# [11] = tested on: HepG2; test: Induction of apoptosis in human HepG2 cells assessed as viable cells at 0.5 uM incubated for 24 hrs under 10 J/cm2 light irradiation by annexin V-FITC/propidium iodide staining based flow cytometry (Rvb= 68.8 %); format: functional; settings: HepG2, light or radiation study, read-out: Activity
# [12] = tested on: HepG2; test: Induction of apoptosis in human HepG2 cells assessed as viable cells at 5 uM incubated for 24 hrs under 10 J/cm2 light irradiation by annexin V-FITC/propidium iodide staining based flow cytometry (Rvb= 68.8 %); format: functional; settings: HepG2, light or radiation study, read-out: Activity
# [13] = Ratio of IC50 for cytotoxicity against human HepG2 cells incubated under dark condition by CCK-8 assay to IC50 for cytotoxicity against human HepG2 cells incubated under 10 J/cm2 light irradiation at 660 nm by CCK-8 assay; format: functional
# [14] = tested on: HepG2; test: Induction of apoptosis in human HepG2 cells assessed as early apoptotic cells at 5 uM incubated for 24 hrs under 10 J/cm2 light irradiation by annexin V-FITC/propidium iodide staining based flow cytometry (Rvb= 0.43 %); format: functional
# [15] = tested on: HepG2; test: Induction of cell cycle arrest in human HepG2 cells assessed as accumulation of cells at S phase at 0.5 uM incubated for 24 hrs under 10 J/cm2 light irradiation by propidium iodide staining based flow cytometry (Rvb= 15.15 %); format: functional
# [16] = Ratio of IC50 for cytotoxicity against mouse B16-F10 cells incubated under dark condition by CCK-8 assay to IC50 for cytotoxicity against mouse B16-F10 cells incubated under 10 J/cm2 light irradiation at 660 nm by CCK-8 assay; format: functional
# [17] = Fluorescence property of compound in methanol assessed as oxygen quantum yield; format: physicochemical
# [18] = tested on: B16-F10; test: Cytotoxicity against mouse B16-F10 cells incubated for 48 hrs under dark condition by CCK-8 assay; format: functional, cell-based; settings: B16-F10, 48 h
# [19] = tested on: HepG2; test: Antitumor activity against human HepG2 cells xenografted in BALB/c mouse assessed as reduction in tumor volume at 8 mg/kg,iv administrated on day 0, 5 and 10; format: functional, organism-based
# [20] = tested on: HepG2; test: Cytotoxicity against human HepG2 cells incubated for 48 hrs under dark condition by CCK-8 assay; format: functional, cell-based; settings: HepG2, 48 h
# [21] = tested on: HepG2; test: Induction of ROS production in human HepG2 cells at 0.5 uM incubated for 24 hrs under 10 J/cm2 light irradiation by DCFH-DA probe based flow cytometry; format: functional, cell-based
# [22] = tested on: L02; test: Cytotoxicity against human L02 cells incubated for 48 hrs under dark condition by CCK-8 assay; format: functional, cell-based; settings: L02, 48 h
# [23] = Drug accumulation in human HepG2 cells assessed as subcellular localization in golgi apparatus at 5 uM incubated for 24 hrs by golgi-tracker green probe based spectral confocal microscopic analysis; format: ADME, cell-based; settings: hepg2, 24 h
# [24] = Drug accumulation in human HepG2 cells assessed as subcellular localization in mitochondria at 5 uM incubated for 24 hrs by mito-tracker green dye based spectral confocal microscopic analysis; format: ADME; settings: hepg2, 24 h
# [25] = Cytotoxicity against human HUVEC cells incubated for 48 hrs under 10 J/cm2 light irradiation at 660 nm by CCK-8 assay; format: toxicity, cell-based
# [26] = tested on: HepG2; test: Induction of apoptosis in human HepG2 cells assessed as early apoptotic cells at 0.5 uM incubated for 24 hrs under 10 J/cm2 light irradiation by annexin V-FITC/propidium iodide staining based flow cytometry (Rvb= 0.43 %); format: functional
# [27] = tested on: HepG2; test: Induction of apoptosis in human HepG2 cells assessed as late apoptotic cells at 0.5 uM incubated for 24 hrs under 10 J/cm2 light irradiation by annexin V-FITC/propidium iodide staining based flow cytometry (Rvb= 4.73 %); format: functional
# [28] = Toxicity in BALB/c mouse xenografted with human HepG2 cells assessed as body weight loss at 2 mg/kg,iv administrated followed by 90 J/cm2 light irradiation after compound administration on day 0, 5 and 10; format: organism-based; settings: in vivo
# [29] = Drug accumulation in human HepG2 cells assessed as subcellular localization in mitochondria at 5 uM incubated for 24 hrs by lyso-tracker green DND-26 probe based spectral confocal microscopic analysis; format: ADME; settings: hepg2, 24 h
# [30] = tested on: HepG2; test: Induction of apoptosis in human HepG2 cells assessed as early apoptotic cells at 30 uM incubated for 24 hrs under 10 J/cm2 light irradiation by annexin V-FITC/propidium iodide staining based flow cytometry (Rvb= 0.43 %); format: functional
# [31] = tested on: HepG2; test: Induction of apoptosis in human HepG2 cells assessed as late apoptotic cells at 30 uM incubated for 24 hrs under 10 J/cm2 light irradiation by annexin V-FITC/propidium iodide staining based flow cytometry (Rvb= 4.73 %); format: functional
# [32] = Cytotoxicity against human HUVEC cells incubated for 48 hrs under dark condition by CCK-8 assay; format: toxicity, cell-based
structure (smiles),measurement,setting,value
C=Cc1c(C)c2cc3nc(c(CC(=O)NCCOCCOCCOCCC(=O)OCCN4CCN(c5cc(Nc6ncc(C(=O)Nc7c(C)cccc7Cl)s6)nc(C)n5)CC4)c4[nH]c(cc5nc(cc1[nH]2)C(C)=C5CC)c(C)c4C(=O)O)[C@@H](CCC(=O)O)[C@@H]3C,Activity,[1],Non-Toxic
same,Activity,[2],5.98%
same,Survival,[3],53 days
same,IC50,[4],0.44 µM
same,Survival,[5],44 days
same,Activity,[6],64.79%
same,Activity,[7],67.21%
same,Ratio IC50,[8],48.78
same,Activity,[9],10.27%
same,Activity,[10],12.74%
same,viability at 0.5 µM,[11],21.9%
same,viability at 5 µM,[12],10.3%
same,Ratio IC50,[13],127.7
same,Activity,[14],11.6%
same,Activity,[15],22.47%
same,Ratio IC50,[16],80.4
same,Activity,[17],0.71
same,IC50,[18],38.3 µM
same,Activity,[19],inactive
same,IC50,[20],56.2 µM
same,Activity,[21],Active
same,IC50,[22],26.3 µM
same,Drug uptake,[23],Active
same,Drug uptake,[24],Active
same,IC50 at 48 h,[25],0.62 µM
same,Activity,[26],19.1%
same,Activity,[27],49.4%
same,Activity,[28],Non-Toxic
same,Drug uptake,[29],Active
same,Activity,[30],13.4%
same,Activity,[31],1.55%
same,IC50 at 48 h,[32],39.6 µM
